Reference: article PMC12037037 (Proceedings of the National Academy of Sciences of the …, 2025)
“Also recorded” adds a separate entry of the source.

Legend:
[1] = target: 5-HT5A (Homo sapiens, UniProt P47898); test: Functional assay at 5-HT5A (Fig. S4); format: cell-based
Text: Figure S4. […] Radioligand binding (RLB) (top) and IP1 functional assays (bottom) for 5-HT1A (A), 5-HT5a (B), 5-HT6 (C), and 5-HT7 (D) receptors. Agonist or antagonist mode is indicated in the title of each graph. Data represent the mean ± SEM of 2 technical replicates.
5-carboxamidotryptamine; ND = not determined for incomplete curves.
(1 picture or pasted object on this page, not shown here)

[2] = target: 5-HT2A receptor membrane preparations obtained from PSYLI2 cells (Homo sapiens, UniProt P28223); test: Ligand binding kinetics with [3H]-LSD on PSYLI2 membrane preparations; conditions: kinetics of competition binding vs [3H]-LSD
Chain of 5-HT2A receptor membrane preparations obtained from PSYLI2 cells (P28223 1-263 limits assumed): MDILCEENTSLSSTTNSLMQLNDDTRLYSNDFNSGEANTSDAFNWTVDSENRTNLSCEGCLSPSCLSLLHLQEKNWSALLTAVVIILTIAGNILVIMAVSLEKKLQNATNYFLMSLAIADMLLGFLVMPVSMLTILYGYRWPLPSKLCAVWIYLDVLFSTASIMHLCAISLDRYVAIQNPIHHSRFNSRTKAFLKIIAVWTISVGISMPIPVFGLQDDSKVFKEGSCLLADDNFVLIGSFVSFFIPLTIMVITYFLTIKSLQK
Chain of 5-HT2A receptor membrane preparations obtained from PSYLI2 cells (P28223 316-471 limits assumed): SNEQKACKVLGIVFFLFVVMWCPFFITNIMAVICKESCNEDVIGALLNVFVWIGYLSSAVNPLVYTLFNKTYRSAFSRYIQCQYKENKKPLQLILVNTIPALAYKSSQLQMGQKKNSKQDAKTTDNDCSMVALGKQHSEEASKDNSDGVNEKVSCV
Experimental: Ligand binding kinetics at the 5-HT2AR.
Data represent the mean ± SEM of 2–3 biological replicates.
Data represent the mean ± SEM of 2–4 biological replicates.
Binding buffer consisted of 50 mM Tris HCl, 10 mM MgCl2, 0.1 mM EDTA disodium dihydrate in autoclaved
deionized water. The solution was adjusted to pH 7.4 with 10 M NaOH(aq) and stored at 4 °C. This solution was used in
membrane preparation generation as well as competition and kinetics assays.
free, see 15) were grown in 15-cm plates with Dulbecco’s Modified Eagle Media (DMEM) containing 10% fetal bovine serum and 1% penicillin/streptomycin. When the cells were >90% confluent, the media was removed, and the cells were washed
with Dulbecco’s Phosphate Buffered Saline (DPBS) (15 mL). Next, DMEM (15 mL) lacking fetal bovine serum and
penicillin/streptomycin was added, and the cells were serum-starved for 4–12 hours. Roughly 10 mL of the DMEM was
removed, leaving ~5 mL of media in the plates before placing them on ice. Once on ice, the plates were scraped and the
contents were transferred to a pre-chilled 50 mL Falcon tube and then centrifuged (2,000 g, 10 min, 4 °C). The supernatant […]
of 0.25 mL to use for quantification of protein concentration via a Bradford assay with a Coomassie protein assay reagent. […]
For association binding experiments, total and nonspecific binding was determined by adding binding buffer (2.5X solution, […]

[3] = system: cultured rat embryonic cortical neurons; test: Neuritogenesis assay (Sholl analysis, DIV6); format: cell-based
Experimental: Figure S8. […] (A) Sholl analysis of embryonic day 18 (E18) rat cortical
(D) Area under the curves of the Sholl plots
N values are shown within the bars. VEH =
Neuritogenesis Assays. Neuritogenesis Assays were performed as previously described (17) with slight modifications.
Briefly, 96 well plates were coated with poly-D-lysine and approximately 15,000 cells/well. Neurons were treated after 3 days in vitro (DIV3) for 1 h followed by a complete media change. Cells were incubated for an additional 3 days before fixing and staining for MAP2 on DIV6. Neurites were visualized using a chicken anti-MAP2 antibody (1:10,000; EnCor, CPCA-MAP2) and an anti-chicken IgG secondary antibody conjugated to Alexa Fluor 488 (Life Technologies, 1:500). Plates were imaged in DPBS on a Thermo Scientific CellInsight CX7 High-Content Screening Platform at 20x (N.A. = 0.45). Images were analyzed using the Simple Neurite Tracer and Sholl analysis plug-ins for ImageJ Fiji (version 1.51N). Sholl analysis circle radii = 2 µm increments. All images were taken and analyzed by an experimenter blinded to treatment conditions.

[4] = Pharmacokinetics studies (plasma and brain); format: in vivo, rats
Experimental: Pharmacokinetic studies of (+)-JRT.
rats following a 1 mg/kg IP administration of (+)-JRT fumarate (N = 3).
JRT in the brains of rats following a 1 mg/kg IP administration of (+)-JRT fumarate (N = 3 for the 0.25, 0.5, and 1.0 h time
points, N = 1 for the 2.0 h time point).
Pharmacokinetics Studies. […] Male Sprague Dawley rats (190 – 206 g) were purchased from Shanghai JiHui Laboratory Animal Co., Ltd (Shaghai, China) and were administered (+)-JRT fumarate via IP injection (1 mg/kg, 5 mL/kg) after overnight fasting. Animals were sacrificed and plasma and brain samples were collected at time points of 0.25, 0.5, 1, 2, and 4 hours post dose (N = 3 per time point). Approximately 150 μL of blood was collected into a K2EDTA tube via jugular vein. Blood samples were put on wet ice and centrifuged to obtain plasma samples (2000 g, 5 min, 4 °C) within 15 min. After blood collection, a mid-line incision was made into the scalp and the skin retracted. The skull overlaying the brain was removed, and the whole brain was collected, rinsed with cold saline, dried on filter paper, weighed, and snap frozen via dry ice. Plasma and brain samples were stored at approx. -70 °C until analysis.
For plasma samples, an aliquot of 30 μL sample was mixed with 200 μL internal standard (IS) (propranolol, 40 ng/mL in MeCN). The mixture was vortexed for 1 min and centrifuged at 5800 rpm for 10 min. The supernatant was collected and 0.5 μL was injected for LC-MS/MS analysis. Brain samples were homogenized with 2 volumes (v/w) of PBS (dilution factor of 3). The procedure for diluted brain samples was the same as the plasma samples. Plasma concentrations are reported as ng/mL and brain concentrations, with a dilution factor of 3 applied, are reported as ng/g. […]
1.61 min and 1.43 min respectively, and the analytes were ionized under a positive ion spray mode and detected through […]

[5] = target: T1, 5-HT2CR (Homo sapiens, UniProt P28335); test: IP1 functional assay (5-HT2CR); format: cell-based; conditions: 5-HT2C, IP1, agonist mode
T1 construct: Epics Therapeutics S.A
T1 sequence (P28335 33-458): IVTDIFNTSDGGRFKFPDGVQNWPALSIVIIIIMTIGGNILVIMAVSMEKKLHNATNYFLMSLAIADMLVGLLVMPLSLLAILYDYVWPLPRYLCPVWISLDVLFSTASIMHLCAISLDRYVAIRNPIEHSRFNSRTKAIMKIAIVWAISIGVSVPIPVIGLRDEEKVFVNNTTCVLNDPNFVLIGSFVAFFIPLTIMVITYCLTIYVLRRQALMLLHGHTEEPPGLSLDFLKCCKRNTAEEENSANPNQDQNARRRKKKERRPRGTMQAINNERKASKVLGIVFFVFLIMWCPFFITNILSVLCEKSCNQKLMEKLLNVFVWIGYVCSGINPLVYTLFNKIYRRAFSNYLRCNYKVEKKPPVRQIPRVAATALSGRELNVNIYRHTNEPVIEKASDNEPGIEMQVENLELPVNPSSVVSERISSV
Experimental: IP1 Assay (5-HT2AR and 5-HT2CR). The 5-HT2AR and 5-HT2CR IPOne HTRF assays were performed at Epics
Therapeutics S.A. (Belgium, FAST-0505I) using conventional methods. Experiments were performed using the free bases
of (+)-JRT and (–)-JRT. Briefly, CHO-K1 cells expressing human recombinant 5-HT2AR grown to mid-log phase in culture
media without antibiotics were detached with PBS-EDTA, centrifuged, and resuspended in medium without antibiotics
buffer. Then, 20,000 cells were distributed in a 96-well plate and incubated overnight at 37 °C with 5% CO2. For agonist
were added to each well. The plate was incubated for 60 min at 37 °C with 5% CO2. After addition of the lysis buffer containing
IP1-d2 and anti-IP1 cryptate detection reagents, plates were incubated for 1 h at room temperature and fluorescence ratios
were measured according to the manufacturer’s specifications using the HTRF kit.
IP1 Assay (5-HT2BR). […]
Following incubation, the cells are lysed and the fluorescence acceptor (D2-
labeled IP1) and fluorescence donor (anti-IP1 antibody labeled with europium cryptate) were added. […]
temperature, the fluorescence transfer was measured at lex = 337 nm and lem = 620 and 665 nm using a microplate
reader (Envision, Perkin Elmer). The IP1 concentration was determined by dividing the signal measured at 665 nm by that
measured at 620 nm (ratio). […]

[6] = system: C57BL/6J mice; test: Novelty-induced locomotion; format: in vivo; conditions: 1 mg/kg
[7] = target: T2, U2OS cells expressing 5-HT2ARs (β-arrestin recruitment) (Homo sapiens, UniProt P28223); test: PathHunter β-arrestin agonist assay; format: cell-based; conditions: free base
T2 construct: host or cells: U2OS
T2 sequence (P28223 whole entry): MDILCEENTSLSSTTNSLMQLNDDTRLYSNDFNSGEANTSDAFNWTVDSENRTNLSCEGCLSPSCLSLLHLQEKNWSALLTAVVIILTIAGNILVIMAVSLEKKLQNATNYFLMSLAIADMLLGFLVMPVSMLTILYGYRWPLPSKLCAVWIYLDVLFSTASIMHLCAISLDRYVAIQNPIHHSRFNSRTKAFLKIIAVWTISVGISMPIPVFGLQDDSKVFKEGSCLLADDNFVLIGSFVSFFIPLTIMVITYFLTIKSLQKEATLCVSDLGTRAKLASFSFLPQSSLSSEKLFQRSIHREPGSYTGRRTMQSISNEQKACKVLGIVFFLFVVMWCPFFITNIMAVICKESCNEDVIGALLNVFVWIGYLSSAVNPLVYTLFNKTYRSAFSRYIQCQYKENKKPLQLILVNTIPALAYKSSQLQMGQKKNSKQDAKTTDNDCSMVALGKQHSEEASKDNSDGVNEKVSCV
Experimental: (D) The PathHunter® β-arrestin assay was used to
b-Arrestin Activation (PathHunter®). The 5-HT2AR PathHunter® b-arrestin agonist assay was performed at Eurofins
DiscoverX (Frement, CA, Catalog # 86-0001P-2090AG).
The PathHunter® β-arrestin assay monitors the activation of a GPCR in a homogenous, non-imaging assay format
using a technology developed by DiscoverX called Enzyme Fragment Complementation (EFC) with β-galactosidase (β-Gal)
as the functonal reporter.
PK and EA are then expressed as fusion proteins in U2OS cells,
with PK fused to the GPCR of interest, and EA fused to b-arrestin. When the target GPCR is activated and β-arrestin is

[8] = system: male C57BL/6J mice; test: PCP-induced locomotion (Psychogenics); format: in vivo
Experimental: IP) can block AMPH-induced hyperlocomotion in female, but not male, mice. (B) Pretreatment with (+)-JRT (1 mg/kg, IP) […]
AMPH = (+)-amphetamine; PCP = phencyclidine; VEH = vehicle; ns = not significant. *p < 0.05, **p < 0.01, ***p < 0.001, ****p < 0.0001, as compared to the comparator(s) indicated by a horizontal bar. See Methods and SI Appendix, Table S1 for full details on statistics.
(1 picture or pasted object on this page, not shown here) […]
PCP-Induced Locomotion. The PCP-induced hyperlocomotion assay was performed by Psychogenics using male C57BL/6J mice that were approximately 8 weeks old at the time of the experiments. The experiment was performed during the animal’s light cycle phase. On the day of testing, animals were acclimated to the experimental room for at least 1 h prior to treatment. Animals were then administered with VEH or JRT (IP, 10 mL/kg) and placed in holding cages for 30 min, after which mice were placed in the open field chambers (27.3 x 27.3 x 30.3; Med Associates Inc., St Albans, VT). Baseline activity was recorded for 30 min. Next, mice received either PCP (5 mg/kg, IP, 10 ml/kg) or VEH and were returned to the open field chambers for a 60 min test session. Locomotion was assessed using consecutive infrared beam breaks. At the end of each session, the chambers were thoroughly cleaned. […]
Reads were aligned to the GRCm39 genome assembly using STAR, processed with Picard, and counted with the Subread software. Transcript inclusion criteria consisted of a minimum raw expression level of 25 transcripts in a minimum of 4 samples. Surrogate variable analysis was conducted with the sva package 2023 release v3.5.0 in R and normalization and differential expression analysis was performed with DESeq2 v4.3 with a baseMean threshold of 10. Heatmaps were created with the pheatmap v1.0.12 with sample-wise z-scores plotted and both row and column grouping allowed using pearson's distances and ward.D for clustering. Gene-wise selection criteria for heatmaps were a baseMean expression threshold of 50 to focus on robustly expressed genes, p value < 0.05, and presence in the top 250 genes sorted by absolute value of log2FC. Additionally, z score was capped at 2 for visualization purposes. Schizophrenia gene sets were extracted from a recent TWAS study (30).
For Figure S8G, the TWAS set was filtered for FDR < 0.01. Permutation testing was conducted to quantify the overlap of top genes from schizophrenia TWAS with the perm_test function from the bulkWarehouse package 2023 release v1.2.7.
Briefly, the intersection of top differentially expressed genes and top TWAS genes is compared to an empirical distribution created by calculating the intersection with our top DEGs when randomly sampling candidate genes from our dataset equal to the size of the TWAS sample. […]

Chain of 5-HT5A (P47898 whole entry): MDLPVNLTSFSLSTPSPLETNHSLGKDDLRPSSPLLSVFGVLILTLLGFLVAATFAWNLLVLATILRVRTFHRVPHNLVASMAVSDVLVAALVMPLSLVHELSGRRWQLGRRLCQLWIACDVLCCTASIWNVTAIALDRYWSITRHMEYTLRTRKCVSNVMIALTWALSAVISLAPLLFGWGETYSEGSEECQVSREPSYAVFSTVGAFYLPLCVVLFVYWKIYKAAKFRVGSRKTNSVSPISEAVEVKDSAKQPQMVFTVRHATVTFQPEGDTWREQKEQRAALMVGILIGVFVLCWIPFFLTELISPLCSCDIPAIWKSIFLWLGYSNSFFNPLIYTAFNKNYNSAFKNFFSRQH

CCN(CC)C(=O)[C@@H]1C=C2c3cccc4ccn(c34)C[C@H]2N(C)C1 [(+)-JRT]
Functional activity at 5-HT5A [1]: antagonist
Dissociation rate from the 5-HT2A receptor, fold faster than LSD [2]: approximately 10 fold
Nmax (maximum number of crossings of the Sholl plots) ([3]; 1 μM, DIV6, compared to vehicle control): increased Nmax values to a greater extent than CLZ
Area under the curves of the Sholl plots (Figure S8D) ([3]; 1 µM, DIV6, VEH 1.000 ± 0.05010, mean ± SEM): 1.193 ± 0.05057
Total branches (Figure S8C) ([3]; 1 µM, DIV6, VEH 2.325 ± 0.2641, mean ± SEM): 4.121 ± 0.3838
Number of primary dendrites (Figure S8B) ([3]; 1 µM, DIV6, VEH 6.275 ± 0.2292, mean ± SEM): 8.152 ± 0.2824
Presence in rat brain and plasma within 2 h ([4]; 1 mg/kg IP dose): nearly absent
Levels in plasma or brain at 4 h ([4]; 1 mg/kg IP, (+)-JRT fumarate, rats): below the limit of quantification
Brain concentration relative to the Ki at the 5-HT2AR ([4]; 1 mg/kg, rat): ~ 20 fold
Emax [5]: 89%
Effect on locomotion ([6]; novel arena 30 min): does not impact locomotion
Serotonin syndrome-like responses ([6]; backward walking, forepaw treading, hind limb abduction, low body posture, Straub tail, tremor): does not impact locomotion (SI Appendix, Fig. S10) or produce any serotonin syndrome-like responses
β-arrestin recruitment through 5-HT2A receptor activation [7]: potent partial agonist; also recorded: not able to recruit β-arrestin through 5-HT2A receptor activation with high efficacy
Locomotion, infrared beam breaks (Figure 11B) ([8]; (+)-JRT (0.1) + PCP 5 mg/kg IP): 30482 ± 2310
Locomotion, infrared beam breaks (Figure 11B) ([8]; (+)-JRT (0.3) + PCP 5 mg/kg IP): 26618 ± 2425
Locomotion, infrared beam breaks (Figure 11B) ([8]; (+)-JRT (1) + PCP 5 mg/kg IP): 27253 ± 2401
